Assay results published in patent US7015323B2, “Thiocarbamate inhibitors of alpha-4 integrins” (Genentech, Inc., priority 2003, dated 2006).

Test: Clearance and half life: pharmacokinetics after IV or PO dosing, plasma measured by LC/MS/MS
Type: in vivo
Conditions: rat; for clearance: clearance from plasma levels (LC/MS/MS, WinNonlin), PEG 400 formulation, route for the table values not stated; for half-life: half life from plasma levels (LC/MS/MS, WinNonlin), route not stated
Procedure: Jugular Vein Cannulation—Animals are anesthetized via IP injection using Ketamine/Xylazine/saline solution (@ 0.25 mL/kg). Animals are weighed prior to dosing of anesthetic to determine proper dosage. Sterile instruments and aseptic technique are used throughout surgery. This includes wearing a mask, clean lab coat or scrubs and sterile gloves. The ventral and dorsal neck areas are shaved and prepped with betadine and alcohol. A small skin incision is made over the jugular vein. Using blunt dissection techniques, free the intended vessel from surrounding tissue and thread two sutures under the vein. Tie the cranial suture, nick the vessel, insert the catheter, and use the distal suture to secure the catheter. Dissect a subcutaneous passage between the catheter insertion point and the intrascapular space; make a small exit hole at the nape of the neck. Then, using hemastats, pull the cannula through the passage to the dorsal neck area. Confirm that the catheter is still properly placed, flush with appropriate heparin/saline solution, and knot the distal end of the cannula. Place a suture tie around the knot, coil the cannula under the skin and close the dorsal incision, leaving the “tie” slightly exposed for ease of externalizing the catheter. Close the ventral incision. The animal should be recovered on a circulating heating blanket or equivalent and returned to its room when it's able to right itself.
Compounds are formulated with polyethylene glycol 400 (PEG) at 30% (IV) or 60% (PO).
Intravenous (IV) dosing is accomplished with a bolus injection into a lateral tail vein. Animals are restrained using a rat restrainer to minimize mis-dosings and to reduce animal stress. Individual doses are calculated based on body weights taken the morning of the dose. Oral (PO) dosing is accomplished by oral gavage using a 3½ inch stainless steel animal feeding tube. Animals are restrained by grasping gently with our hands to reduce animal stress. Individual doses are calculated based on body weights taken the morning of the dose.
Blood (approximately 0.2 mL) is collected from an jugular cannula. For occasions when the jugular cannula fails, blood is removed from the remaining lateral tail vein. The whole blood was placed into Microtainer® tubes containing K2EDTA anticoagulant. Samples are inverted several times to ensure proper mixing with anticoagulant and are stored on ice until centrifugation. Samples are centrifuged at 10,000×g for 5 minutes and plasma is transferred to 1.5 mL microcentrifuge tube. […]
All plasma samples are measured by LC/MS/MS. All pharmacokinetic parameters, clearance (CL), half life (t½), area under curve (AUC) and maximum conc (Cmax) are determined using WinNonin (version 3.2).

SMILES	clearance [mL/min/kg]	half-life [min]
O=C(N[C@@H](Cc1ccc(OC(=O)N2CCOCC2)cc1)C(=O)O)c1ccccc1Cl [referencecarbamate]	50	6
O=C(N[C@@H](Cc1ccc(OC(=S)N2CCOCC2)cc1)C(=O)O)c1ccccc1Cl [compound 1]	23	61
